Our source for the IC50 values is patent publication US9242970B2 (ACTELION PHARMACEUTICALS LTD., priority 2010, dated 2016).

For orientation: IC50 means the concentration that inhibits the measured activity by half.

SMILES strings stand for the structures.

For one experiment, the target named is human orexin-1 receptor (Homo sapiens (Human), UniProt O43613). The experiment is described as follows: In vitro assay: intracellular calcium measurements (FLIPR), antagonistic activity. Conditions: CHO cells, 3 nM orexin-A, compound incubation 120 min; marked values are geometric means of n = 2-6; read-out: IC50 OX1. The format is cell-based. On the technique in general: A change in cytosolic calcium serves as a functional read-out for many receptors and channels.
Sequence of human orexin-1 receptor (O43613 whole entry): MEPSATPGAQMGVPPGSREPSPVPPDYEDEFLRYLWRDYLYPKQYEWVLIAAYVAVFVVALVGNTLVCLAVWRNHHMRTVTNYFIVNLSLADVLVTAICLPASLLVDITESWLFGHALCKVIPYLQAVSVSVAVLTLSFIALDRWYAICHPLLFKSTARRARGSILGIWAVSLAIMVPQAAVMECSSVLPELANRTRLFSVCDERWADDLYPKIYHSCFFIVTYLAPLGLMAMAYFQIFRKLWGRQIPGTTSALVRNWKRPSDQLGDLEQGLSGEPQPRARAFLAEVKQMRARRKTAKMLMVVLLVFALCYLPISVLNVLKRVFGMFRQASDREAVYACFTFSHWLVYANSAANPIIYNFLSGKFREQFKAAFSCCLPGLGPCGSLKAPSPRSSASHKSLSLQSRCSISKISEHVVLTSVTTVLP

The next experiment addresses human orexin-2 receptor (Homo sapiens (Human), UniProt O43614). Described as above. Type of experiment: cell-based. Conditions: CHO cells, 3 nM orexin-A, compound incubation 120 min; marked values are geometric means of n = 2-6; read-out: IC50 OX2.

Sequence of human orexin-2 receptor (O43614 whole entry): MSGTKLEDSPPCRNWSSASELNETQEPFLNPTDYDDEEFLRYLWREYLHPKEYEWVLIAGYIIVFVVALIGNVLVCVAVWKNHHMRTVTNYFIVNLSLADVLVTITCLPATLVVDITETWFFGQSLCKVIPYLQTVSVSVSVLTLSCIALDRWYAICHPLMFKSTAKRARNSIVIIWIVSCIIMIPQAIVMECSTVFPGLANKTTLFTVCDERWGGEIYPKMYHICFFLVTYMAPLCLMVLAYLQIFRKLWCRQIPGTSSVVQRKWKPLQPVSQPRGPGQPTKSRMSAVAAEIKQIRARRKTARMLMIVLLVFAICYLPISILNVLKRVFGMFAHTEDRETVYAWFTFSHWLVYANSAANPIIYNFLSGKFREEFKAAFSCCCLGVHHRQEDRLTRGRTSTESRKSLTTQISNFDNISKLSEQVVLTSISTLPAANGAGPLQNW

Take `COc1ccnc(OC)c1C1CC(C)C(=O)N1Cc1cccc(-c2ncc(C)s2)c1` (stereo not shown) [Example 349, 5-(2,4-dimethoxypyridin-3-yl)-3-methyl-1-(3-(5-methylthiazol-2-yl)benzyl)pyrrolidin-2-one]: the IC50 amounted to 104 nM at human orexin-1 receptor and 120 nM on human orexin-2 receptor.

With `COc1ccnc(OC)c1C1CC(C)C(=O)N1Cc1csc(-c2ccc(C)cc2)n1` (stereo not shown) [Example 350, 5-(2,4-dimethoxypyridin-3-yl)-3-methyl-1-((2-(p-tolyl)thiazol-4-yl)methyl)pyrrolidin-2-one], the IC50 stood at 665 nM at human orexin-1 receptor and 51 nM on human orexin-2 receptor.

Take `COc1cccc(OC)c1C1CC(C)C(=O)N1Cc1ccnc(-c2ncc(C)s2)c1` (stereo not shown) [Example 351, 5-(2,6-dimethoxyphenyl)-3-methyl-1-((2-(5-methylthiazol-2-yl)pyridin-4-yl)methyl)pyrrolidin-2-one]: the IC50 on human orexin-1 receptor turned out to be 16 nM; at human orexin-2 receptor it was 51 nM.

Consider `COc1ccnc(OC)c1C1CC(C)C(=O)N1Cc1ccc2oc3ccccc3c2c1` (stereo not shown) [Example 352, 1-(dibenzo[b,d]furan-2-ylmethyl)-5-(2,4-dimethoxypyridin-3-yl)-3-methylpyrrolidin-2-one], for which the IC50 was found to be 7 nM at human orexin-1 receptor and 13 nM on human orexin-2 receptor.

For `COc1cccc(OC)c1C1CC(F)(F)C(=O)N1Cc1ccc2oc3ccccc3c2c1` (stereo not shown) [Example 353, 1-(dibenzo[b,d]furan-2-ylmethyl)-5-(2,6-dimethoxyphenyl)-3,3-difluoropyrrolidin-2-one], the IC50 on human orexin-1 receptor amounted to 4 nM; at human orexin-2 receptor, 19 nM.

With `COc1ccnc(OC)c1C1CC(C)C(=O)N1Cc1cccc(-c2ccccc2)c1` (stereo not shown) [Example 354, 1-([1,1′-biphenyl]-3-ylmethyl)-5-(2,4-dimethoxypyridin-3-yl)-3-methylpyrrolidin-2-one], the results for the IC50 at human orexin-1 receptor and at human orexin-2 receptor were 56 nM and 113 nM, respectively.

Regarding `COc1ccnc(OC)c1C1CC(C)C(=O)N1Cc1cccc(-c2nc(Cl)cs2)c1` (stereo not shown) [Example 355, 1-(3-(4-chlorothiazol-2-yl)benzyl)-5-(2,4-dimethoxypyridin-3-yl)-3-methylpyrrolidin-2-one], the IC50 on human orexin-1 receptor turned out to be 34 nM; at human orexin-2 receptor, 103 nM.

As to `COc1ccnc(OC)c1C1CC(C)C(=O)N1Cc1cccc(-c2csc(C)n2)c1` (stereo not shown) [Example 356, 5-(2,4-dimethoxypyridin-3-yl)-3-methyl-1-(3-(2-methylthiazol-4-yl)benzyl)pyrrolidin-2-one], the values for the IC50 on human orexin-1 receptor and on human orexin-2 receptor were 30 nM and 113 nM, respectively.

Take `COc1cccc(F)c1C1CC(C)C(=O)N1Cc1cnc2ccccc2c1` (stereo not shown) [Example 358, 5-(2-fluoro-6-methoxyphenyl)-3-methyl-1-(quinolin-3-ylmethyl)pyrrolidin-2-one]: the IC50 on human orexin-1 receptor was 959 nM; at human orexin-2 receptor, 1260 nM.

For `COc1cccc(F)c1C1CC(C)C(=O)N1Cc1ccc2ccccc2n1` (stereo not shown) [Example 359, 5-(2-fluoro-6-methoxyphenyl)-3-methyl-1-(quinolin-2-ylmethyl)pyrrolidin-2-one], the values for the IC50 on human orexin-1 receptor and at human orexin-2 receptor were 1710 nM and 334 nM, respectively.

For the compound `COc1cccc(F)c1C1CC(C)C(=O)N1Cc1ccnc(-c2ncc(C)s2)c1` (stereo not shown) [Example 360, 5-(2-fluoro-6-methoxyphenyl)-3-methyl-1-((2-(5-methylthiazol-2-yl)pyridin-4-yl)methyl)pyrrolidin-2-one], the IC50 turned out to be 352 nM at human orexin-1 receptor and 12 nM at human orexin-2 receptor.

Turning to `COc1cccc(F)c1C1CC(C)C(=O)N1Cc1ccnc(-n2cccn2)c1` (stereo not shown) [Example 361, 1-((2-(1H-pyrazol-1-yl)pyridin-4-yl)methyl)-5-(2-fluoro-6-methoxyphenyl)-3-methylpyrrolidin-2-one], the IC50 at human orexin-1 receptor was 849 nM; on human orexin-2 receptor, 87 nM.

As to `COc1cccc(F)c1C1CC(C)C(=O)N1Cc1ccc2oc3ccccc3c2c1` (stereo not shown) [Example 362, 1-(dibenzo[b,d]furan-2-ylmethyl)-5-(2-fluoro-6-methoxyphenyl)-3-methylpyrrolidin-2-one], the IC50 at human orexin-1 receptor is 85 nM; on human orexin-2 receptor it was 6 nM.

As to `COc1cccc(F)c1C1CC(C)C(=O)N1Cc1csc(-c2ccc(C)cc2)n1` (stereo not shown) [Example 363, 5-(2-fluoro-6-methoxyphenyl)-3-methyl-1-((2-(p-tolyl)thiazol-4-yl)methyl)pyrrolidin-2-one], the IC50 on human orexin-1 receptor came to 424 nM; on human orexin-2 receptor, 49 nM.

`COc1cccc(F)c1C1CC(C)C(=O)N1Cc1cccc(-c2ncc(C)s2)c1` (stereo not shown) [Example 364, 5-(2-fluoro-6-methoxyphenyl)-3-methyl-1-(3-(5-methylthiazol-2-yl)benzyl)pyrrolidin-2-one]: the figures for the IC50 at human orexin-1 receptor and on human orexin-2 receptor were 121 nM and 11 nM, respectively.

On to `COc1cccc(F)c1C1CC(C)C(=O)N1Cc1cccc(-c2nc(Cl)cs2)c1` (stereo not shown) [Example 365, 1-(3-(4-chlorothiazol-2-yl)benzyl)-5-(2-fluoro-6-methoxyphenyl)-3-methylpyrrolidin-2-one], for which the IC50 at human orexin-1 receptor amounted to 114 nM; on human orexin-2 receptor, 9 nM.

Regarding `COc1cccc(F)c1C1CC(C)C(=O)N1Cc1ccnc(-c2nc(C)cs2)c1` (stereo not shown) [Example 366, 5-(2-fluoro-6-methoxyphenyl)-3-methyl-1-((2-(4-methylthiazol-2-yl)pyridin-4-yl)methyl)pyrrolidin-2-one], the figures for the IC50 on human orexin-1 receptor and at human orexin-2 receptor were 158 nM and 8 nM, respectively.

With `CCOc1cccc(F)c1C1CC(C)C(=O)N1Cc1cccc(OC(F)(F)F)c1` (stereo not shown) [Example 371, 5-(2-ethoxy-6-fluorophenyl)-3-methyl-1-(3-(trifluoromethoxy)benzyl)pyrrolidin-2-one], the IC50 on human orexin-1 receptor worked out at 386 nM; on human orexin-2 receptor, 19 nM.

As for `CCOc1cccc(F)c1C1CC(C)C(=O)N1Cc1ccc(OC(F)(F)F)c(F)c1` (stereo not shown) [Example 372, 5-(2-ethoxy-6-fluorophenyl)-1-(3-fluoro-4-(trifluoromethoxy)benzyl)-3-methylpyrrolidin-2-one], the values for the IC50 on human orexin-1 receptor and on human orexin-2 receptor were 1490 nM and 115 nM, respectively.

For the compound `CCOc1cccc(F)c1C1CC(C)C(=O)N1Cc1cccc(OC(F)F)c1` (stereo not shown) [Example 374, 1-(3-(difluoromethoxy)benzyl)-5-(2-ethoxy-6-fluorophenyl)-3-methylpyrrolidin-2-one], the figures for the IC50 at human orexin-1 receptor and at human orexin-2 receptor were 976 nM and 41 nM, respectively.

With `CCOc1cccc(F)c1C1CC(C)C(=O)N1Cc1ccc(OC(F)F)c(Cl)c1` (stereo not shown) [Example 375, 1-(3-chloro-4-(difluoromethoxy)benzyl)-5-(2-ethoxy-6-fluorophenyl)-3-methylpyrrolidin-2-one], the IC50 at human orexin-1 receptor stood at 715 nM; at human orexin-2 receptor it was 65 nM.

`CCOc1cccc(F)c1C1CC(C)C(=O)N1Cc1cnc2ccccc2c1` (stereo not shown) [Example 378, 5-(2-ethoxy-6-fluorophenyl)-3-methyl-1-(quinolin-3-ylmethyl)pyrrolidin-2-one]: the IC50 at human orexin-1 receptor stood at 1640 nM; on human orexin-2 receptor, 690 nM.

For the compound `CCOc1cccc(F)c1C1CC(C)C(=O)N1Cc1ccc2ccccc2n1` (stereo not shown) [Example 379, 5-(2-ethoxy-6-fluorophenyl)-3-methyl-1-(quinolin-2-ylmethyl)pyrrolidin-2-one], the IC50 on human orexin-1 receptor is 1000 nM; at human orexin-2 receptor, 71 nM.

Consider `CCOc1cccc(F)c1C1CC(C)C(=O)N1Cc1ccnc(-c2ncc(C)s2)c1` (stereo not shown) [Example 380, 5-(2-ethoxy-6-fluorophenyl)-3-methyl-1-((2-(5-methylthiazol-2-yl)pyridin-4-yl)methyl)pyrrolidin-2-one], for which the results for the IC50 on human orexin-1 receptor and at human orexin-2 receptor were 131 nM and 2 nM, respectively.

With `CCOc1cccc(F)c1C1CC(C)C(=O)N1Cc1ccnc(-n2cccn2)c1` (stereo not shown) [Example 381, 1-((2-(1H-pyrazol-1-yl)pyridin-4-yl)methyl)-5-(2-ethoxy-6-fluorophenyl)-3-methylpyrrolidin-2-one], the IC50 at human orexin-1 receptor is 418 nM; at human orexin-2 receptor it was 9 nM.

For `CCOc1cccc(F)c1C1CC(C)C(=O)N1Cc1ccc2oc3ccccc3c2c1` (stereo not shown) [Example 382, 1-(dibenzo[b,d]furan-2-ylmethyl)-5-(2-ethoxy-6-fluorophenyl)-3-methylpyrrolidin-2-one], the IC50 at human orexin-1 receptor came out at 88 nM; on human orexin-2 receptor it was 2 nM.

Regarding `CCOc1cccc(F)c1C1CC(C)C(=O)N1Cc1csc(-c2ccc(C)cc2)n1` (stereo not shown) [Example 383, 5-(2-ethoxy-6-fluorophenyl)-3-methyl-1-((2-(p-tolyl)thiazol-4-yl)methyl)pyrrolidin-2-one], the IC50 amounted to 234 nM at human orexin-1 receptor and 9 nM on human orexin-2 receptor.

With `CCOc1cccc(F)c1C1CC(C)C(=O)N1Cc1cccc(-c2ncc(C)s2)c1` (stereo not shown) [Example 384, 5-(2-ethoxy-6-fluorophenyl)-3-methyl-1-(3-(5-methylthiazol-2-yl)benzyl)pyrrolidin-2-one], the IC50 at human orexin-1 receptor came out at 111 nM; on human orexin-2 receptor it was 2 nM.

As to `CCOc1cccc(F)c1C1CC(C)C(=O)N1Cc1cccc(-c2nc(Cl)cs2)c1` (stereo not shown) [Example 385, 1-(3-(4-chlorothiazol-2-yl)benzyl)-5-(2-ethoxy-6-fluorophenyl)-3-methylpyrrolidin-2-one], the IC50 is 64 nM on human orexin-1 receptor and 2 nM at human orexin-2 receptor.

Regarding `CCOc1cccc(F)c1C1CC(C)C(=O)N1Cc1ccnc(-c2nc(C)cs2)c1` (stereo not shown) [Example 386, 5-(2-ethoxy-6-fluorophenyl)-3-methyl-1-((2-(4-methylthiazol-2-yl)pyridin-4-yl)methyl)pyrrolidin-2-one], the IC50 came out at 39 nM at human orexin-1 receptor and 2 nM at human orexin-2 receptor.

Turning to `COc1cccc(OC)c1C1CC(C)C(=O)N1Cc1ccc2c(c1)c1ccccc1n2C` (stereo not shown) [Example 387, 5-(2,6-dimethoxyphenyl)-3-methyl-1-((9-methyl-9H-carbazol-3-yl)methyl)pyrrolidin-2-one], the IC50 on human orexin-1 receptor came to 100 nM; on human orexin-2 receptor, 111 nM.

As to `COc1cccc(OC)c1C1CC(C)C(=O)N1Cc1cc2ccccc2n1C` (stereo not shown) [Example 388, 5-(2,6-dimethoxyphenyl)-3-methyl-1-((1-methyl-1H-indol-2-yl)methyl)pyrrolidin-2-one], the IC50 on human orexin-1 receptor was found to be 83 nM; at human orexin-2 receptor, 132 nM.
